In patent US6706740B2, “Fungicidal heterocyclic aromatic amides and their compositions, methods of use and preparation” (Dow AgroSciences LLC, priority 1999, dated 2004):
Where two headings read alike, the source gives them in different places.

Tests used:
[1] = tested on: Magnaporthe grisea (Pyricularia oryzae—PYRIOR); assay: microbe, parasite or virus in culture; format: cell-based; details: Pyricularia oryzae, read-out: PYRIOR in vitro Growth Inhibition
[2] = tested on: Rhizoctonia solani (RHIZSO); assay: microbe, parasite or virus in culture; format: cell-based; details: Rhizoctonia solani, read-out: RHIZSO in vitro Growth Inhibition
[3] = tested on: Mycosphaerella graminicola (Septoria tritici—SEPTTR); assay: In vitro fungal growth inhibition, Mycosphaerella graminicola (SEPTTR); format: cell-based; details: Zymoseptoria tritici, read-out: SEPTTR in vitro Growth Inhibition
[4] = tested on: Stagonospora nodorum (Leptosphaeria nodorum—LEPTNO); assay: In vitro fungal growth inhibition, Stagonospora nodorum (LEPTNO); format: cell-based; details: Leptosphaeria, read-out: LEPTNO in vitro Growth Inhibition
Ustilago maydis (USTIMA) = assay: microbe, parasite or virus in culture; format: cell-based; details: Mycosarcoma maydis, read-out: USTIMA in vitro Growth Inhibition
[5] = tested on: Phytophthora infestans (PHYTIN); assay: microbe, parasite or virus in culture; format: cell-based; details: Phytophthora infestans, read-out: PHYTIN in vitro Growth Inhibition
[6] = tested on: Phytophthora infestans—PHYTIN; assay: whole plant or invertebrate; format: in vivo; details: Phytophthora, in Solanum lycopersicum, 24 h, read-out: PHYTIN in vivo 1 Day Protectant
[7] = tested on: Puccinia recondita—PUCCRT; assay: Brown Rust of Wheat, in vivo whole plant, 24 Hour Protectant; details: for pest or weed control at 100 ppm: Puccinia, read-out: PUCCRT in vivo 1 Day Protectant
Erysiphe graminis—ERYSGT = assay: Powdery Mildew of Wheat, in vivo whole plant, 24 Hour Protectant; details: for pest or weed control at 100 ppm: Erysiphe, read-out: ERYSGT in vivo 1 Day Protectant
Septoria tritici—SEPTTR = assay: Leaf Blotch of Wheat, in vivo whole plant, 24 Hour Protectant; details: for pest or weed control at 100 ppm: Zymoseptoria tritici, 24 h, control of fungal infection vs untreated plants, read-out: SEPTTR in vivo 1 Day Protectant
[8] = tested on: Leptosphaeria nodorum—LEPTNO; assay: Glume Blotch of Wheat, in vivo whole plant, 24 Hour Protectant; details: for pest or weed control at 100 ppm: Leptosphaeria, control of fungal infection vs untreated plants, read-out: LEPTNO in vivo 1 Day Protectant
[9] = wheat plants sprayed at 100 ppm, inoculated after 24 hours, control of fungal infection vs untreated plants
[10] = wheat plants sprayed at 100 ppm, inoculated after 24 hours
[11] = 100 ppm spray, 24 hour protectant, wheat, control of fungal infection vs untreated plants
[12] = 100 ppm spray, 24 hour protectant, wheat
[13] = 100 ppm spray, wheat, 24 hour protectant, control of fungal infection vs untreated plants
[14] = 100 ppm spray, wheat, 24 hour protectant
[15] = 100 ppm spray, wheat, 24 hour protectant, % control of fungal infection vs untreated plants

Row | SMILES | inhibition at 25 ppm [1] [%] | inhibition at 25 ppm [2] [%] | inhibition at 25 ppm (Ustilago maydis (USTIMA)) [%] | inhibition at 25 ppm [5] [%] | pest or weed control at 100 ppm [6] [%] | inhibition at 25 ppm ([3]; 25 ppm in growth medium) [%] | inhibition at 25 ppm ([4]; 25 ppm in growth medium) [%] | pest or weed control at 100 ppm (Erysiphe graminis—ERYSGT; [13]) [%] | pest or weed control at 100 ppm (Septoria tritici—SEPTTR; [14]) [%] | pest or weed control at 100 ppm [8, 14] [%] | also measured
1 | COC(=O)C(COC(=O)CCc1ccccc1)NC(=O)c1nccc(OC)c1OC(C)=O (stereo not shown) [Compound 583] | < 80 | < 80 | < 80 | < 80 | < 25 | – | – | – | – | – | inhibition at 25 ppm ([3]; 25 ppm in the growth medium): < 80%; inhibition at 25 ppm ([4]; 25 ppm in the growth medium): < 80%; pest or weed control at 100 ppm [7, 9]: < 25%; pest or weed control at 100 ppm (Erysiphe graminis—ERYSGT; [9]): < 25%; pest or weed control at 100 ppm (Septoria tritici—SEPTTR; [10]): < 25%; pest or weed control at 100 ppm [8, 10]: 25 to 74%
2 | COc1ccnc(C(=O)N[C@H]2CO[C@H](C(C)Cc3ccc(C(C)(C)C)cc3)OC2)c1O (stereo partly shown) [Compound 316] | > 80 | < 80 | > 80 | < 80 | < 25 | < 80 | > 80 | – | – | – | PUCCRT in vivo 1 Day Protectant [7, 11]: + +; pest or weed control at 100 ppm (Erysiphe graminis—ERYSGT; [11]): < 25%; pest or weed control at 100 ppm (Septoria tritici—SEPTTR; [12]): < 25%; pest or weed control at 100 ppm [8, 12]: 25 to 74%
3 | CC(=O)Oc1cccnc1C(=O)Nc1ccc(Oc2cccc(C(F)(F)F)c2)cc1 [Compound 570] | > 80 | < 80 | < 80 | < 80 | < 25 | – | – | – | – | – | inhibition at 25 ppm ([3]; 25 ppm in the growth medium): < 80%; inhibition at 25 ppm ([4]; 25 ppm in the growth medium): < 80%; pest or weed control at 100 ppm [7, 9]: < 25%; ERYSGT in vivo 1 Day Protectant (Erysiphe graminis—ERYSGT; [9]): + +; pest or weed control at 100 ppm (Septoria tritici—SEPTTR; [10]): 25 to 74%; pest or weed control at 100 ppm [8, 10]: 25 to 74%
4 | COc1ccnc(C(=O)NC(COC(=O)CC(C)OC(=O)CCc2ccccc2)C(=O)OC(C)C)c1O (stereo not shown) [Compound 353] | < 80 | < 80 | < 80 | < 80 | < 25 | < 80 | < 80 | < 25 | < 25 | < 25 | PUCCRT in vivo 1 Day Protectant [7, 13]: + +
5 | COC(=O)C(COC(=O)C(C)c1ccccc1)NC(=O)c1nccc(OC)c1O (stereo not shown) [Compound 343] | < 80 | < 80 | < 80 | < 80 | < 25 | < 80 | < 80 | 25 to 74 | < 25 | 25 to 74 | pest or weed control at 100 ppm [7, 13]: < 25%
6 | COc1ccnc(C(=O)N[C@H]2COC(=O)[C@H](Cc3ccccc3)[C@@H](OC(=O)C(C)C)[C@H](C)OC2=O)c1OC(=O)c1ccc(F)c(F)c1 [Compound 639] | < 80 | < 80 | < 80 | < 80 | < 25 | < 80 | > 80 | – | – | – | PUCCRT in vivo 1 Day Protectant [7, 15]: + +; pest or weed control at 100 ppm (Erysiphe graminis—ERYSGT; [15]): < 25%; SEPTTR in vivo 1 Day Protectant (Septoria tritici—SEPTTR; [15]): + +; LEPTNO in vivo 1 Day Protectant [8, 15]: + +
7 | COc1ccnc(C(=O)NC2CC(C(F)(F)F)CC(C(F)(F)F)C2)c1O (stereo not shown) [Compound 256] | < 80 | < 80 | < 80 | < 80 | < 25 | < 80 | < 80 | – | – | – | pest or weed control at 100 ppm [7, 11]: 25 to 74%; pest or weed control at 100 ppm (Erysiphe graminis—ERYSGT; [11]): 25 to 74%; pest or weed control at 100 ppm (Septoria tritici—SEPTTR; [12]): 25 to 74%; pest or weed control at 100 ppm [8, 12]: 25 to 74%
8 | COc1ccccc1Oc1ccc(NC(=O)c2nccc(OC)c2O)cc1 [Compound 433] | < 80 | < 80 | < 80 | < 80 | < 25 | > 80 | < 80 | < 25 | < 25 | < 25 | pest or weed control at 100 ppm [7, 13]: < 25%
